# Assay results taken from patent USRE38167E1, “Weight reduction method for cats and other pets” (International Flora Technologies Ltd, priority 1996, dated 2003).
# Assay: Cat free-choice feeding study: daily food intake
# Assay type: in vivo
# Settings: overweight cats
# Method: All feeding studies were conducted from Feb. 26, 1998 to Sep. 17, 1998 at Summit Ridge Farms, Susquehanna, Pa. All were adult domestic short-haired cats. Most were quite old, as they had been in the colony 3 to 14 years and were thought to have been 1 to 4 years of age when they were obtained (Table 11). Just before beginning the study, all cats were given a thorough physical examination by a veterinarian. […] Each cat's current and estimated optimum weight were determined during this exam. […] All cats were housed individually with 12 hr light and dark cycles, and at a temperature of 60 to 85° F. and humidity of 30 to 70%. Food bowls, water bowls and litter boxes were emptied and sanitized daily. Water and the diet being fed were always available for free choice consumption except the night before the cats were to be weighed, when food bowls were removed. The amount of diet consumed was recorded, diet uneaten discarded and fresh diet fed daily. Weekly, following an overnight (14-hr) fast, each cat was weighed. Each cat was initially fed the non-jojoba containing diet FC-0 for 4 weeks, or until it was 14% or more over its estimated optimum weight, at which time it was fed either the diet containing 4% (FC-2) or 8% (FC-3) jojoba. Cats whose weight decreased by more than 4.6% in 1 week, or 6% in 2 weeks, were changed to the next lower jojoba-containing diet. […] When a cat was within 2.0% of its optimum weight, it was changed to a lower jojoba-containing diet; either that containing 2% or 4% (FC-1 or FC-2). If optimum body weight wasn't maintained when this diet was fed, the cat was changed to a higher jojoba-containing diet if it had gained weight and a lower jojoba-containing diet if it had lost weight. When the cat's weight had been maintained within 4% of its optimum for 4 weeks while eating the same diet, it was given a thorough physical exam by a veterinarian and removed from the study.
smiles,measurement,setting,value
"CO[C@H]1[C@@H](OC)C[C@@H](O[C@@H]2O[C@H](CO)[C@@H](O)[C@H](O)[C@H]2O)/C(=C\C#N)[C@@H]1O [Simmondsin, simmondsin]",Percent Decrease in Food Intake,0.12% bioactive simmondsin activity in diet,17.8%
same,Percent Decrease in Food Intake,0.24% bioactive simmondsin activity in diet,30.7%
same,Percent Decrease in Food Intake,0.49% bioactive simmondsin activity in diet,45.9%
same,Percent Decrease in Food Intake,0.73% bioactive simmondsin activity in diet,49.2%
